# Source: patent US20110142866A1, “PEPTIDE ANALOGUES AND CONJUGATES THEREOF” (Eldrug S.A., priority 2007, published 2011)
# “Also recorded” adds a separate entry of the source. Positions of bridges follow the written chain, without caps; N, C: chain ends. No end group written: not given here.
# Columns and labels:
# [1] = system: IFN-γ secretion by T cells; test: IFN-γ ELISpot of spleen cells from immunized mice; type: in vivo, SJL/J mice; conditions: for cross-reaction of IFN-γ producing T cells with native MBP87-99 peptide: recall peptide native MBP87-99
# Protocol: (§1) Female 6-8 week old SJL/J mice used in all experiments, were purchased from Walter and Eliza Hall Institute (VIC Australia) and housed at the Biological Research Laboratory at Burnet Institute at Austin, Heidelberg, Australia. SJL/J mice were immunized twice on days 0, 14 intradermally (base of tail) with 50 μg MBP83-99 peptide analogue-KLH-reduced mannan.
# (§2) ELISpot analyses specific T cell responses to antigens by detecting the secretion of specific cytokines. Spleen cells from immunized SJL/J mice were isolated 14 days after immunization and assessed by ELISpot for IFN-γ, IL-4 or IL-10 secretion by T cells. IFN-γ ELISpot assay was performed on MultiScreen-IP Filter Plate (MAIP S4510) with hydrophobic PVDF filters (Millipore, UK) while IL-4 and IL-10 ELISpot was performed on MultiScreen-HA Filter Plate (MAHA S4510) with mixed cellulose esters filters (Millipore, UK). MAIP S4510 plates were pre-wet with 50 μl of 70% ethanol, washed 5 times with 200 μl sterile PBS and coated with 70 μl of 5 μg/ml anti-IFN-γ capture antibody, AN18 (Mabtech, Australia) in PBS and left to incubate at 4° C. O/N. While 70 μl of 5 μg/ml anti-IL-4 and anti-IL-10 capture antibody (Mabtech, Australia) was added directly to MAHA S4510 plates and incubated at 4° C. O/N without 70% ethanol treatment. Following 5 washes with PBS, plates were blocked by adding 200 μl of culture media (supplemented with 2.5% FCS) and incubated for 2 hours at 37° C. The blocking media was discarded and 10 μg/ml recall peptides (MBP83-99 peptide analogues not conjugated to KLH-reduced mannan) were added into each defined well. Con A (1.0 μg/ml; IL-4 and IFN-γ) or LPS (1.0 μg/ml; IL-10) were used as an internal positive controls and no peptide was used as negative control. Triplicate wells were set up for each condition. 5×10^5 spleen cells in 100 μl culture media were seeded into each well and incubated for 18 hours for IFN-γ, 24 hours for IL-4 and 48 hours for IL-10 at 37° C. Plates were washed 5 times PBS/0.05% Tween 20 and 5 times PBS and incubated for 2 hours at RT with anti-murine IFN-γ, IL-4 or IL-10 monoclonal antibody-biotin. Plates were washed and streptavidin-ALP was added at 1.0 μg/ml and incubated for 2.0 hours at RT. Spots of activity were detected using a colorimetric AP kit (Biorad, Hercules, Calif. USA) and counted using an AID ELISpot plate reader (Autoimmun Diagnostika GmbH, Germany). Data are presented as mean spot forming units (sfu) per 0.5×10^6 cells +/−standard error of the mean (SEM).
# (§3) MBP87-99, [R^91, A^96]MBP87-99 or [A^91, A^96]MBP87-99 peptides were dissolved in PBS and emulsified in an equal volume of complete Freund's adjuvant (CFA) which contained 1.0 mg/ml of heat killed Mycobacterium tuberculosis H37RA (Sigma, Victoria, Australia). SJL/J mice were given one subcutaneous injection containing 50 μg peptide into the base of tail.
# (§4) SJL/J mice were immunized twice on days 0 and 14 intradermally (base of tail) with 50 μg MBP87-99-KLH-reduced mannan, [R^91, A^96]MBP87-99-KLH-reduced mannan or [A^91, A^96]MBP87-99-KLH-reduced mannan conjugates.
# (§5) ELISpot detects specific T cell responses to antigens by measuring the secretion of specific cytokines from individual cells. Spleen cells from immunized SJL/J mice were isolated 28 days after CFA immunization or 14 days after the last immunization with reduced mannan-peptides and assessed by ELISpot for IFN-γ and IL-4 secretion by T cells. IFN-γ ELISpot assay was performed on MultiScreen-IP Filter Plate (MAIP S4510) with hydrophobic PVDF filters (Millipore, UK), while IL-4 ELISpot assays were performed on MultiScreen-HA Filter Plate (MAHA S4510) with mixed cellulose esters filters (Millipore, UK). MAIP S4510 plates were pre-weted with 50 μl of 70% ethanol, washed 5 times with 200 μl of sterile phosphate-buffered saline (PBS) and coated with 70 μl of 5 μg/ml anti-IFN-γ capture antibody, AN18 (Mabtech, Australia) in PBS and incubated O/N at 4° C. […]
# [2] = system: IL-4 secretion by T cells; test: IL-4 ELISpot of spleen cells from immunized mice; type: in vivo, SJL/J mice
# Protocol: as §1, §2, §3, §4, §5
# [3] = system: respective peptides conjugated to BSA or KLH; test: ELISA total IgG antibody responses to the respective peptide; type: in vivo, SJL/J mice
# Protocol: (§6) Blood was collected and sera isolated from mice prior to and 4 weeks after immunization with CFA or 14 days after the last immunization with reduced mannan conjugates. MBP87-99 or [A^91, A^96]MBP87-99 peptides conjugated to BSA or KLH were coated onto polyvinyl chloride (PVC) microtiter plates at 10 μg/ml in 0.2 M NaHCO3 buffer, pH 9.6, 0/N at 4° C. Non-specific binding was blocked with 2% BSA for 1.0 h at RT. After washing (0.05 Tween 20/PBS), serial dilutions of sera were added and incubated for a further 2 h at RT. The plates were washed and bound antibody was detected using HRP-conjugated sheep anti-mouse antibody (1/1000 dilution in PBS) (Amersham, UK) and developed using 2,2′-azino-di(3-ethylbenzthiazoline)6-sulfonic acid (ABTS) (Sigma, UK). Absorbance at 405 nm was recorded using a Fluostar Optima microplate reader (BMG labtech, Offenburg, Germany).
# (§7) ELISpot assays for IFN-γ and IL-4 secretion by T cells and ELISA assays for binding of sera to native MBP protein or peptide were carried out as previously described^3, 4, 20, 21. Mean values were compared using the Student's two-tailed t-test. P value threshold of p<0.01 indicates a statistically significant difference.
# [4] = system: native MBP87-99 peptide; test: ELISA cross reaction of sera with native MBP87-99 peptide; type: in vivo; conditions: 1/500 and 1/1,000 sera dilutions
# Protocol: as §6, §7
# [5] = system: MBP72-85 induced EAE; test: Induction-inhibition of MBP-EAE in Lewis rats; type: in vivo; conditions: co-injection (500 μg) with MBP72-85 (25 μg)
# [6] = 50 μg peptide conjugated to reduced mannan, two intradermal injections, spleen cells 14 days post-immunization
# [7] = 50 μg peptide emulsified in CFA, one injection, spleen cells 28 days
# [8] = peptide conjugated to reduced mannan
Substance,"IFN-γ secreting T cells (in words) [1, 6]","IFN-γ secreting T cells (in words) [1, 7]","cross-reaction of IFN-γ producing T cells with native MBP87-99 peptide [1, 8]",cross-reaction of IFN-γ producing T cells with native MBP87-99 peptide ([1]; peptide emulsified in CFA),"IL-4 secreting T cells (in words) [2, 6]","IL-4 secreting T cells (in words) [2, 7]",IgG antibody responses (in words) ([3]; peptide emulsified in CFA),"cross-reaction of antibodies with native MBP87-99 peptide [4, 8]",cross-reaction of antibodies with native MBP87-99 peptide ([4]; peptide emulsified in CFA),"IgG antibody responses (in words) [3, 8]",inhibition of EAE [5],further results
"VHFFANIVTARTP [[A^91, A^96]MBP87-99]",no IFN-γ was detected,strong levels,did not cross-react,did not cross-react,high levels,high levels,No IgG antibody levels,did not cross-react,did not cross-react,,,
"VHFFKNIVTPRTP [MBP87-99, reference compound]",high levels,high levels,,,did not induce; also recorded: No detectable,did not induce; also recorded: No detectable,very low levels and Low,,,higher levels,,
"VHFFRNIVTARTP [[R^91, A^96]MBP87-99]",,,,,very high,low levels,,,,,,"decrease of IFN-γ relative to native MBP87-99 [1, 8]: 70%; decrease of IFN-γ relative to native MBP87-99 ([1]; peptide emulsified in CFA): 30%; inhibition of EAE ([5]; listed as [Arg^91, Ala^96]MBP87-99): completely prevented the development of EAE; inhibition of EAE ([5]; listed as [Arg^91,Ala^96]MBP87-99): completely prevented the induction of EAE"
Val-His-Phe-Phe-Lys^91-Asn-Ile-Val-Thr-Ala^96-Arg-Thr-Pro^99 (VHFFKNIVTARTP; lactam 5-C) [cyclo(91-99)[Ala^96] MBP87-99],,,,,,,,,,,low inhibitory activity,
"Val^87-His-Phe-Phe-Arg^91-Asn-Ile-Val-Thr-Ala^96-Arg-Thr-Pro^99 [cyclo(87-99)[Arg^91, Ala^96] MBP87-99]",,,,,,,,,,,strong inhibitor of EAE,"inhibition of EAE ([5]; listed as cyclo(87-99)[Arg^91,Ala^96]MBP87-99): completely prevented the induction of EAE"
"cyclo, head-to-tail, VHFFANIVTARTP (VHFFXNIVTXRTP; cyclised or stapled) [cyclo(87-99)[A^91, A^96]MBP87-99]",reduce IFN-γ production,reduce IFN-γ production,did not cross-react,did not cross-react,moderate levels,moderate levels,no IgG antibodies,did not react,did not react,higher levels,,"decrease of IFN-γ compared to linear MBP87-99 conjugated to reduced mannan [1, 8]: ~50%; decrease of IFN-γ compared to linear MBP87-99 emulsified in CFA [1, 8]: ~70%; decrease of IFN-γ compared to the same peptide emulsified in CFA [1, 8]: ~50%"
